Results: patent US8377972B2, “Use of quaternary pyridinium compounds for vasoprotection and/or hepatoprotection” (Trigendo Sp. zo.o., priority 2007, dated 2013)
“Also recorded” adds a separate entry of the source. Where two headings read alike, the source gives them in different places.

Key:
[1] = Binding of pyridinium cations to sepharose-immobilized heparin (spectrophotometric); conditions: immobilized heparin 25 mg/mL, tested compounds 20÷100 μM in water, 5 minutes, room temperature
From the text: The presence of the heparin in the pyridinium salt solution changes the absorption spectrum of the salt through the non-specific electrostatic interactions of pyridinium cations with negatively charged heparin moieties. The use of water-insoluble sepharose-immobilized heparin which binds some fraction of pyridinium cations causes the decrease of the concentration of the salt in the solution.
At the high excess of the immobilized heparin in relation to the pyridinium salt concentration the degree of binding depends only on the heparin concentration. It allows, by using the experimental methodology described below, to estimate the degree of binding of different pyridinium compounds to heparin, provided that analogical concentrations of pyridinium salts and constant concentration of sepharose-immobilized heparin are used.
To estimate a degree of binding of the pyridinium_compounds with heparin spectrophotometric method based on the absorption measurements of aqueous solutions of tested compounds at 20÷100 μM before and after a contact with heparin was used.
The suspensions of immobilized heparin with the tested compounds were then placed into Eppendorf microtubes and centrifuged at 13 000 rpm for 4 minutes using FORCE 1418 microcentrifuge from Labnet Int. (Edison, N.J., USA). The UV-Vis absorption spectra of the resulting clear supernatants was measured with Perkin Elmer Lambda 40 spectrophotometer. All measurements were performed at room temperature. The degree of binding was estimated based on comparison of integrated area under the absorption curve for the solutions incubated and non-contacted with heparin.

platelet-rich thrombus [2] = conditions: Table 2; known anti-thrombotic activity, documented in WO 2005/067927; cited from earlier work
platelet-rich thrombus [3] = test: Thrombolytic response in vivo in rats with extracorporeal circulation (thrombus on collagen strip); parameters: species or system Wistar rats; conditions: for Thrombolytic response: Table 3, trigonelline and its thermal decomposition products; for thrombolytic response (in words) / thrombolytic response, maxima: 30 mg/kg intravenous; for thrombolytic response (in words): Wistar rats
Description: Thrombolytic activity was assayed by the method developed originally by Gryglewski et al., (Gryglewski R J, Korbut R, Ocetkiewicz A, Stachura J. In vivo method for quantitation for anti-platelet potency of drugs. Naunyn Schmiedebergs Arch Pharmacol 1978; 302:25-30; Gryglewski R J 1978, Gryglewski et al., 2001). The scheme of the method is shown on FIG. 1.
Wistar rats (body weight of 300-350 g) were anaesthetised (thiopental 95 mg/kg i.p) and heparinised (800 U/kg i.v.). Caniules were placed in arteries and connected from the left carotid artery vein with a pressure sensor and from the right carotid artery through heated (37° C.) line to peristaltic pomp. The blood from carotid artery was pumped to the extracorporeal circulation were it superfused (1.5 ml/min) a 3 cm collagen strip excised from Achilles tendon hung on a spring-balanced auxotonic lever of a Harvard 386 isotonic transducer and the weight of the collagen strip was continuously registered. After superfusion the blood was returned to the circulation of an animal. During superfusion a thrombus made of platelets aggregates stuck in the fibrin network (microscopically visualized by the Weigert method) was formed on the surface of the collagen strip. A pressure and the thrombus weight were continuously recorded.
Then the trigonelline thermolysate, 1-methylpyridine or 1,4-dimethylpyridine were injected intravenously into the femoral vein (30 mg·kg^−1).

Balb/c mice = test: Hepatoprotective effect in mice model of acute liver injury (Concanavalin A-induced hepatitis); format: in vivo; conditions: 100 mg/kg per os for 7 days, ConA 20 mg/kg i.v., 8 hours later
Description: Balb/c mice at the age of 2 months were treated for 7 days with 1,4-dimethylpyridinium chloride (100 mg/kg, per os) or were left untreated and then mice were injected with Concanavalin A (ConA) inducing T cell-mediated hepatitis. ConA was injected intravenously at a dose of 20 mg/kg and 8 hours later liver injury was assessed on the basis of transaminase (AST) level in plasma.

[4] = tested on: Zucker fatty rats (fa/fa); test: Antidiabetic effects in the rat model of metabolic syndrome (glucose injection); format: in vivo; conditions: 7 days treatment (thermolysate 100 mg/kg, metformin 500 mg/kg), glucose 2 g/kg i.p., 0-90 minutes
Description: After 7 days glucose was injected at 2 g/kg (i.p.) and postprandial hyperglycemia was analyzed in the following periods: 0, 15, 30, 60 and 90 minutes after the injection of glucose.

Row | SMILES | Degree of binding [1] | Thrombolytic response (platelet-rich thrombus [2]) | thrombolytic response (in words) (platelet-rich thrombus [3]) | further results
1 | Cn1cc(C(N)=O)ccc1=O [2-PYR, 1-methyl-2-pyridone-5-carboxamide] | >5% | no | – | –
2 | Cc1cc[n+](C)cc1C(=O)[O-] [4MeTryg, 4-methyltrigonelline] | >5% | – | – | –
3 | Cc1cccc[n+]1C [12-DMP^+, 1,2-dimethylpyridine] | >15% | – | – | –
4 | Cc1cc[n+](C)cc1 [14-DMP^+, 1,4-dimethylpyridine] | >20% | – | – | Thrombolytic response (platelet-rich thrombus [3]): yes; transaminase (AST) level in plasma after ConA injection (Balb/c mice): prevented a rise in AST levels
5 | CC(=O)c1ccc[n+](C)c1 [MAP^+, 1-methyl-3-acetyl-pyridine] | >25% | yes | – | –
6 | C[n+]1cccc(C(=O)NCO)c1 [MNAF^+, 1-methyl-N′-(hydroxy-methyl) nicotinamide] | >35% | yes | – | –
7 | C[n+]1cccc(C(N)=O)c1 [MNA^+, 1-methyl-nicotinamide] | >45% | yes | – | –
8 | C[n+]1ccccc1 [MP^+, 1-methylpyridine] | >25% | – | moderate thrombolytic response | Thrombolytic response (platelet-rich thrombus [3]): yes
9 | NC(=O)c1cccnc1 [NA, nicotinamide] | ≈0% | no | lack of significant thrombolytic response | thrombolytic response, maxima (platelet-rich thrombus [3]): 9±0.6%
10 | O=C(O)c1cccnc1 [NC, nicotinic acid] | >40% | no | lack of significant thrombolytic response | thrombolytic response, maxima (platelet-rich thrombus [3]): 5±0.9%
11 | NC(=O)c1ccc[n+]([O-])c1 [N—OX, nicotinamide N-oxide] | >10% | – | – | –
12 | C[n+]1cccc(C(=O)[O-])c1 [Tryg, trigonelline] | ≈0% | – | lack of significant thrombolytic response; also recorded: did not induce significant thrombolytic response | Thrombolytic response (platelet-rich thrombus [3]): no
13 | CN(C)C(=N)N=C(N)N [metformin] | – | – | – | postprandial hyperglycemia induced by glucose injection [4]: decreased postprandial hyperglycemia
